Data taken from PubChem BioAssay AID1645848.
In brackets after ≈: the same amount, converted by molar mass.

Conditions: buffer; pH 7.4; 6.0 h; 150.0 µM

solubility kinetic [µg/mL]	SMILES
54.5 (≈ 132 µM)	Cc1cc(-c2cc3c(nc2-c2ccccc2)nc(C(=O)NCCN(C)C)n3C)ccn1
9.14 (≈ 19.4 µM)	CC(C)Oc1ccc(CNC(=O)C2CCN(C(=O)N3CCOc4ccc(Cl)cc43)CC2)cc1
> 71	COc1cc(C2c3c(oc4cc(C)c(C)cc4c3=O)C(=O)N2CCCN2CCOCC2)ccc1O (stereo not given)
< 1	O=C(Nc1nc(-c2ccccc2)cs1)c1ccncc1NS(=O)(=O)c1ccc(C(F)(F)F)cc1
8.29 (≈ 43.1 µM)	Cc1c(O)ccc2c1OC(C)(C)CC2
25.6 (≈ 52.4 µM)	Cc1nc(Nc2ncc(C(=O)Nc3c(C)cccc3Cl)s2)cc(N2CCN(CCO)CC2)n1
< 1	CC(C)(C)c1cc(NC(=O)Nc2ccc(-c3cn4c(n3)sc3cc(OCCN5CCOCC5)ccc34)cc2)no1
< 1	CCOc1ccc(CCNC(=O)c2cc3sccc3n2Cc2ccc(Cl)c(F)c2)cc1OCC
< 1	Cc1ccc(S(=O)(=O)Nc2cnccc2C(=O)Nc2nc(-c3ccc(C)c(C)c3)cs2)cc1
> 45	Cc1cc(-c2nnc3n2CCCCC3)c(C)n1-c1ccccc1
> 43	O=C(c1ccccc1)N1CCC(C(=O)N2CCC(N3Cc4ccccc4C3=O)CC2)CC1
4.67 (≈ 10.6 µM)	O=S(=O)(Nc1cccc2ccncc12)c1ccc(NCc2cccc(Cl)c2O)cc1
< 1	O=C1CCCC2=C1C(c1[nH]ncc1Cl)N=C(Nc1nc3ccccc3o1)N2 (stereo not given)
20.3 (≈ 56.4 µM)	CC(=O)N[C@H]1CN(C2CCN(c3ccc(F)cc3C)CC2)C[C@@H]1C1CC1
11.2 (≈ 32.3 µM)	O=C(c1ccc2ncccc2c1)N1CCc2c(nc3cc[nH]n3c2=O)C1
< 1	COc1c(NS(=O)(=O)c2ccc(C)cc2)cccc1C(=O)Nc1nc(-c2ccccc2)cs1
8.21 (≈ 22.4 µM)	FC(F)(F)c1ccc(N2CCN(C(=S)Nc3ccccn3)CC2)cc1
< 1	Cl.c1ccc(Nc2nc(NCc3ccco3)c3ccccc3n2)cc1
< 1	Cc1ccc(S(=O)(=O)Nc2cc(C(=O)Nc3nc(-c4ccccc4)cs3)ccn2)cc1
10.8 (≈ 36.6 µM)	CNc1nc2c(s1)C(c1ccc(Cl)cc1)CC(=O)N2 (stereo not given)
< 1	Cc1ccc(S(=O)(=O)Nc2ccccc2C(=O)Nc2nc(-c3ccccc3)c(C)s2)cc1
< 1	Cc1ccc2nc(-c3cc(NC(=O)c4ccc5c(c4)OCCO5)ccc3Cl)oc2c1
27.4 (≈ 70.4 µM)	COc1ccc(-c2ccc3ncc(Nc4ccc(C(N)=O)cc4)n3n2)cc1OC
< 1	O=C(CCc1ccccc1)NC(c1cccs1)c1cc(Cl)c2cccnc2c1O (stereo not given)

solubility kinetic [µg/mL]	SMILES
< 1	O=C(Nc1ccc(S(=O)(=O)Nc2nccs2)cc1)c1ccc2ccccc2c1
< 1	Cc1ccnc(NC(=S)N2CCN(c3ccc(C(F)(F)F)cc3)CC2)c1
< 1	COc1ccc2[nH]c(=O)c(-c3noc(-c4ccc(F)cc4)n3)cc2c1
> 37	Cn1nnnc1Sc1ncnc2sccc12
< 1	COc1cccc(CNc2ccc([S+](=O)([O-])Nc3cc4ccccc4s3)cc2)c1O
11.4 (≈ 27.9 µM)	C[S+](=O)([O-])c1ccc(-c2nc(C(=O)NCc3cccnc3)n3ccccc23)cc1
< 1	Cc1cccc(CS(=O)(=O)c2ncc(Cl)c(C(=O)Nc3nc4ccc(F)cc4s3)n2)c1
0.184 (≈ 0.406 µM)	Cc1ccc(/C=C/c2nc3ccccc3n2S(=O)(=O)c2ccc(Br)cc2)cc1
> 61	CCCCCn1c(=O)[nH]c2cc(C(=O)NCCCN3CCC(C)CC3)ccc2c1=O
2.03 (≈ 5.26 µM)	Cc1cccc(C)c1C(=O)Nc1cccc([S+](=O)([O-])N2CCCCCC2)c1
26.4 (≈ 69.1 µM)	CN(C(=O)COC(=O)c1csc(NCc2ccccc2)n1)c1ccccc1
< 1	CC(C)CS(=O)(=O)c1oc(-c2ccc(F)cc2)nc1S(=O)(=O)c1ccccc1
< 1	N#Cc1cc(-c2nc(Nc3ccc(F)c(F)c3)c3ccccc3n2)ccn1
18.5 (≈ 29.8 µM)	C[C@]1(CO)CN(c2cc(C(=O)Nc3ccc4c(c3)-c3c(c(C(N)=O)nn3-c3ccc(F)cc3)CC4)c(Cl)cn2)C[C@@]1(C)CO
< 1	Brc1ccccc1-c1nc(NCc2ccc(-c3cccnc3)cc2)c2ccccc2n1
0.293 (≈ 0.889 µM)	NC(=O)c1sc2nc3c(c(-c4cccs4)c2c1N)CCCC3
15.2 (≈ 34.4 µM)	COc1ccccc1NS(=O)(=O)c1cccc(NC(=O)c2[nH]c(C)c(C(C)=O)c2C)c1
2.28 (≈ 4.72 µM)	Cc1ccc(C(=O)[C@H]2CC[C@@H](C(=O)Nc3ccc(S(=O)(=O)Nc4nccs4)cc3)C2)cc1C
37.9 (≈ 89.7 µM)	Cc1noc(-c2cn(C3CCN(C(=O)c4ccc(OC(F)(F)F)cc4)CC3)nn2)n1
< 1	Cc1onc(-c2ccccc2)c1C(=O)Nc1nnc(COc2ccc(Cl)cc2)s1
< 1	COc1ccc(-c2ccc(Nc3nc(-c4ccncc4)nc4ccccc34)cc2F)cc1F
> 37	CS(=O)(=O)c1ccc(-c2cnc(NCc3ccco3)n3cnnc23)cc1
3.08 (≈ 9.7 µM)	COc1ccccc1-c1csc(N2CCC(C(N)=O)CC2)n1
> 40	Cc1cccc2c(C(=O)O)cc(-c3cccs3)nc12

solubility kinetic [µg/mL]	SMILES
15 (≈ 56 µM)	COc1cc(/C=C2\C(=O)Nc3ccccc32)ccc1O
> 58	O=C(/C=C/c1cccnc1)NCCCCC1CCN(C(=O)c2ccccc2)CC1
2.28 (≈ 5.97 µM)	Cc1ccnc(NC(=S)N2CCN(c3ccc(Cl)cc3Cl)CC2)c1
1.53 (≈ 2.92 µM)	COc1ccc(C2Nc3ccccc3C(=O)N2Cc2ccco2)cc1COc1c(C)cc(NC(C)=O)cc1C (stereo not given)
< 1	COc1ccc(-c2ccc3ncc4c(c3c2)n(-c2ccc(N3CCNCC3)c(C(F)(F)F)c2)c(=O)n4C)cn1
7.04 (≈ 14.6 µM)	Cc1ccc(S(=O)(=O)Nc2ccccc2C(=O)Nc2nc(-c3ccc(Cl)cc3)cs2)cc1
28.2 (≈ 97.3 µM)	O=C(Nc1nnc(-c2ccco2)o1)c1ccc(Cl)cc1
> 64	Cc1ccc(S(=O)(=O)Nc2cnccc2C(=O)Nc2ccc(-c3nn[nH]n3)cc2)cc1
< 1	COc1ccccc1NC(=O)C1=C(C)Nc2c(C(=O)Nc3cccc(C)c3)cnn2C1c1ccccc1Cl (stereo not given)
40.8 (≈ 124 µM)	O=C(NCc1ccncc1)c1nc(-c2cccnc2)c2cnccn12
3.21 (≈ 5.55 µM)	COC(=O)[C@H](Cc1ccc(O[S+](=O)([O-])c2cccc3cnccc23)cc1)N[S+](=O)([O-])c1ccc2cnccc2c1
> 54	CC1=C[C@@H](CNC(C)C)[C@H](C(C)C)C[C@H]1Cc1nnc(-c2ccncc2)o1
< 1	Cc1cc2c(-c3cccc(O)c3)nc(-c3c(C)noc3C)cc2[nH]1
< 1	CCc1ccccc1C(=O)N1CCc2cc(-c3nc(NC(=O)Cc4ccc5c(c4)OCO5)sc3C)ccc21
> 63	Cc1cc(NS(=O)(=O)c2ccc(NC(=O)Cc3ccc(Cl)c(F)c3)cc2)no1
> 57	CNC(=O)C1=C(C)NC(Nc2nc3ccccc3o2)=NC1c1[nH]ncc1Cl (stereo not given)
> 31	O=C1C(SCCO)=C(SCCO)C(=O)c2ccccc21
< 1	CCOc1cc(CCNC(=O)c2cc3sccc3n2Cc2ccccc2)cc(F)c1OCC
> 61	O=C(O)Cn1c(C(=O)Nc2nc(-c3ccccc3Cl)cs2)cc2ccccc21
> 58	Cc1ccc(S(=O)(=O)Nc2cnccc2C(=O)NCCc2ccccc2)cc1
3.56 (≈ 8.46 µM)	CN(C(=O)c1cn2c(-c3ccc(C(F)(F)F)cc3)cnc2cn1)c1ccc(C#N)cc1
> 42	CCOc1ccc(CNc2ccc3c(c2)ncn3C)cc1
